Results taken from patent US12600728B2, “Interleukin-17 inhibitors” (priority 2020, dated 2026).
Like-named read-outs stand apart in the source and are kept apart here.

Experiments:
[1] = target: biotinylated human IL-17A / AF647-labeled human IL-17RA (Homo sapiens, UniProt Q16552); assay: Human IL-17A×IL-17RA TR-FRET assay; type: binding
Outline: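 Compounds tested in duplicate at each concentration; neutral controls contain all components with DMSO in place of compound.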

[2] = target: recombinant human IL-17AA (Homo sapiens, UniProt Q16552); assay: IL-6 release from NHDF cells, IL-17AA plus TNF-α stimulation; type: cell-based; conditions: 24 hours, IL-6 by ELISA
Outline: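 IL-17-specific IL-6 release from NHDF cells adhered overnight; compounds pre-incubated 30 min at room temperature with human IL-17AA plus TNF-α, then 24 h on cells at 37° C. Final DMSO 0.1% or plasma 20%; IL-6 by ELISA (450 nm). TNF-α-only IL-6 subtracted before IC50 fit.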

[3] = IL17AA FRET/ IL17Rawt IC50, TR-FRET, biotinylated human IL-17A 5 nM, AF647-labeled human IL-17RA 30 nM
[4] = IL17AA + TNF IC50 IL-6, NHDF cells, IL-17AA 30 pM plus TNF-α 6 pM
[5] = TR-FRET, biotinylated human IL-17A 5 nM, AF647-labeled human IL-17RA 30 nM, read-out: IL17AA FRET/ IL17Rawt IC50
[6] = NHDF cells, IL-17AA 30 pM plus TNF-α 6 pM, read-out: IL17AA + TNF IC50 IL-6
[7] = TR-FRET, 5 nM IL-17A, 30 nM IL-17RA, read-out: IL17AA FRET/ IL17Rawt IC50
[8] = NHDF cells, IL-17AA 30 pM + TNF-α 6 pM, read-out: IL17AA + TNF IC50 IL-6
[9] = IL17AA FRET/ IL17Rawt IC50, TR-FRET, 5 nM IL-17A, 30 nM IL-17RA

Chain of recombinant human IL-17AA (Q16552 24-155): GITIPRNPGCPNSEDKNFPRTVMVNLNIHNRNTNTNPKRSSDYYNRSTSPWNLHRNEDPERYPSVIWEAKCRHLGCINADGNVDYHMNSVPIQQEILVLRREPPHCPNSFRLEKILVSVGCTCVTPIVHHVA
Chain of biotinylated human IL-17A / AF647-labeled human IL-17RA (Q16552 24-155): as above

Cc1cc[n+]([O-])c(C)c1-c1ccc(NC(=O)C(NC(=O)c2ccnn2C)C2CCC(C)CC2)cc1F [Example 84, 3-(2-fluoro-4-((S)-2-(1-methyl-1H-pyrazole-5-carboxamido)-2-((1r,4S)-4-methylcyclohexyl)acetamido)phenyl)-2,4-dimethylpyridine 1-oxide]
IC50 [1, 3]: 14 nM | IC50 [2, 4]: 8 nM

CCc1nocc1C(=O)N[C@H](C(=O)Nc1ccc(-c2c(C)cc[n+]([O-])c2C)cc1)C1CCCC1 [Example 34, (S)-3-(4-(2-cyclopentyl-2-(3-ethylisoxazole-4-carboxamido)acetamido)phenyl)-2,4-dimethylpyridine 1-oxide]
IC50 [1, 5]: 81 nM | IC50 [2, 6]: 100 nM

Cc1c(-c2ccc(NC(=O)C(NC(=O)c3ccnn3C)C3CC4CC4C3)cc2)c(Cl)cc[n+]1[O-] (centres unmarked) [Example 218, 3-(4-(2-(bicyclo[3.1.0]hexan-3-yl)-2-(1-methyl-1H-pyrazole-5-carboxamido)acetamido)phenyl)-4-chloro-2-methylpyridine 1-oxide]
IC50 [1, 7]: 67.5 nM | IC50 [2, 8]: 19.5 nM

Cc1cc[n+]([O-])c(C)c1-c1ccc(NC(=O)[C@@H](NC(=O)c2conc2C)[C@@H]2CC=C(F)CC2)cc1 [Example 29, 3-(4-((S)-2-((S)-4-fluorocyclohex-3-en-1-yl)-2-(3-methylisoxazole-4-carboxamido)acetamido)phenyl)-2,4-dimethylpyridine 1-oxide]
IC50 [1, 5]: 85 nM | IC50 [2, 6]: 47 nM

CC(=O)N1CCn2c(ccc2C(=O)N[C@H](C(=O)Nc2ccc(-c3c(C)cc[n+]([O-])c3C)cc2)C2CCCCCC2)C1 [Example 188, (S)-3-(4-(2-(2-acetyl-1,2,3,4-tetrahydropyrrolo[1,2-a]pyrazine-6-carboxamido)-2-cycloheptylacetamido)phenyl)-2,4-dimethylpyridine 1-oxide]
IC50 [1, 7]: 104 nM | IC50 [2, 8]: 6.05 nM

Cc1cc[n+]([O-])c(C)c1-c1ccc(NC(=O)[C@@H](NC(=O)c2conc2C)C2CCCC2)cc1 [Example 37, (S)-3-(4-(2-cyclopentyl-2-(3-methylisoxazole-4-carboxamido)acetamido)phenyl)-2,4-dimethylpyridine 1-oxide]
IC50 [1, 5]: 396 nM | IC50 [2, 6]: 60 nM

Cc1cc[n+]([O-])c(C)c1-c1ccc(NC(=O)[C@H](Cc2ccccc2Cl)NC(=O)c2ccnn2C)cc1 [Example 180, (S)-3-(4-(3-(2-chlorophenyl)-2-(1-methyl-1H-pyrazole-5-carboxamido)propanamido)phenyl)-2,4-dimethylpyridine 1-oxide]
IC50 [1, 7]: 52 nM | IC50 [2, 8]: 372 nM

Cc1cc[n+]([O-])c(C)c1-c1ccc(NC(=O)[C@@H](NC(=O)c2ccnn2C)[C@H]2CC=C(F)CC2)cc1 (single isomer, unassigned) [Example 12a, 3-(4-((S)-2-((R)-4-fluorocyclohex-3-en-1-yl)-2-(1-methyl-1H-pyrazole-5-carboxamido)acetamido)phenyl)-2,4-dimethylpyridine 1-oxide or 3-(4-((S)-2-((S)-4-fluorocyclohex-3-en-1-yl)-2-(1-methyl-1H-pyrazole-5-carboxamido)acetamido)phenyl)-2,4-dimethylpyridine 1-oxide]
IC50 [1, 5]: 112 nM | IC50 [2, 6]: 17 nM

Cc1cc[n+]([O-])c(C)c1-c1ccc(NC(=O)C(NC(=O)c2ccc3n2CCN(C)C3)C2CCC(C(F)(F)F)CC2)cc1 [Example 125, 2,4-dimethyl-3-(4-((S)-2-(2-methyl-1,2,3,4-tetrahydropyrrolo[1,2-a]pyrazine-6-carboxamido)-2-((1r,4S)-4-(trifluoromethyl)cyclohexyl)acetamido)phenyl)pyridine 1-oxide]
IC50 [1, 5]: 174 nM | IC50 [2, 6]: 18 nM

CCc1nocc1C(=O)NC(C(=O)Nc1ccc(-c2c(Cl)cc[n+]([O-])c2C)cc1)C1CCC(C(F)(F)F)CC1 [Example 4, 4-chloro-3-(4-((S)-2-(3-ethylisoxazole-4-carboxamido)-2-((1r,4S)-4-(trifluoromethyl)cyclohexyl)acetamido)phenyl)-2-methylpyridine 1-oxide]
IC50 [1, 5]: 26 nM | IC50 [2, 6]: 12 nM

Cc1cc[n+]([O-])c(C)c1-c1ccc(NC(=O)C(NC(=O)c2ccnn2C)C2CCCC(F)(F)C2)cc1 (centres unmarked) [Example 147, 3-(4-(2-(3,3-difluorocyclohexyl)-2-(1-methyl-1H-pyrazole-5-carboxamido)acetamido)phenyl)-2,4-dimethylpyridine 1-oxide]
IC50 [1, 9]: 513 nM | IC50 [2, 8]: 193 nM

Cc1cc[n+]([O-])c(C)c1-c1ccc(NC(=O)C(NC(=O)c2ccc3n2CCNC3)C2CC3CC3C2)cc1 [Example 204, 3-(4-((S)-2-((1R,3s,5S)-bicyclo[3.1.0]hexan-3-yl)-2-(1,2,3,4-tetrahydropyrrolo[1,2-a]pyrazine-6-carboxamido)acetamido)phenyl)-2,4-dimethylpyridine 1-oxide]
IC50 [1, 7]: 278 nM | IC50 [2, 8]: 95 nM

Cc1c(-c2ccc(NC(=O)C(NC(=O)c3ccc4n3CCN(C)C4)C3CC4CC4C3)cc2F)c(Cl)cc[n+]1[O-] (centres unmarked) [Example 203, 3-(4-(2-(bicyclo[3.1.0]hexan-3-yl)-2-(2-methyl-1,2,3,4-tetrahydropyrrolo[1,2-a]pyrazine-6-carboxamido)acetamido)-2-fluorophenyl)-4-chloro-2-methylpyridine 1-oxide]
IC50 [1, 7]: 257 nM | IC50 [2, 8]: 39 nM

Cc1nocc1C(=O)NC(C(=O)Nc1ccc(-c2c(Cl)cc[n+]([O-])c2C)cc1)C1CC2CC2C1 (single isomer, unassigned) [Example 198]
IC50 [1, 7]: 222 nM | IC50 [2, 8]: 94 nM

Cc1cc[n+]([O-])c(C)c1-c1ccc(NC(=O)C(NC(=O)c2ccnn2C)C2CCC(C(F)(F)F)CC2)cc1 [Example 24, 2,4-dimethyl-3-(4-((S)-2-(1-methyl-1H-pyrazole-5-carboxamido)-2-((1r,4S)-4-(trifluoromethyl)cyclohexyl)acetamido)phenyl)pyridine 1-oxide]
IC50 [1, 3]: 114 nM | IC50 [2, 4]: 48 nM

Cc1c(-c2ccc(NC(=O)[C@@H](NC(=O)c3ccc4n3CCNC4)C3CCC(F)(F)CC3)cc2)c(Cl)cc[n+]1[O-] [Example 196, (S)-4-chloro-3-(4-(2-(4,4-difluorocyclohexyl)-2-(1,2,3,4-tetrahydropyrrolo[1,2-a]pyrazine-6-carboxamido)acetamido)phenyl)-2-methylpyridine 1-oxide]
IC50 [1, 7]: 181 nM | IC50 [2, 8]: 12.6 nM

Cc1cc[n+]([O-])c(C)c1-c1ccc(NC(=O)[C@@H](NC(=O)c2ccnn2C2CC2)C2CCCCCC2)cc1 [Example 42, (S)-3-(4-(2-cycloheptyl-2-(1-cyclopropyl-1H-pyrazole-5-carboxamido)acetamido)phenyl)-2,4-dimethylpyridine 1-oxide]
IC50 [1, 5]: 26 nM | IC50 [2, 6]: 12 nM

Cc1c(-c2ccc(NC(=O)[C@@H](NC(=O)c3ccnn3C)C3CCCCC3)cc2F)c(Cl)cc[n+]1[O-] [Example 2, 4-chloro-3-(4-((S)-2-cyclohexyl-2-(1-methyl-1H-pyrazole-5-carboxamido)acetamido)-2-fluorophenyl)-2-methylpyridine 1-oxide]
IC50 [1, 5]: 24 nM | IC50 [2, 6]: 15 nM

Cc1cc[n+]([O-])c(C)c1-c1ccc(NC(=O)C(NC(=O)c2ccnn2C)C2C=C(F)CCC2)cc1 (centres unmarked) [Example 219, 3-(4-(2-(3-fluorocyclohex-2-en-1-yl)-2-(1-methyl-1H-pyrazole-5-carboxamido)acetamido)phenyl)-2,4-dimethylpyridine 1-oxide]
IC50 [1, 9]: 2290 nM | IC50 ([2]; IL17AA + TNF IC50 IL-6, NHDF cells, IL-17AA 30 pM + TNF-α 6 pM): 142 nM
